Source: ChEMBL document CHEMBL4190187, “Discovery of pyrazolopyrimidine derivatives as novel inhibitors of ataxia telangiectasia and rad3 related protein (ATR)” (Bioorg Med Chem Lett, 2017)

What was measured:
[1] = biological target: Serine/threonine-protein kinase B-raf (Homo sapiens) (UniProt P15056); experiment: Inhibition of recombinant human B-raf (416 to end residues) at 1 uM using myelin basic protein as substrate after 40 mins in presence of [gamma-33P]ATP by scintillation counting method
Chain of Serine/threonine-protein kinase B-raf (Homo sapiens) (P15056 whole entry): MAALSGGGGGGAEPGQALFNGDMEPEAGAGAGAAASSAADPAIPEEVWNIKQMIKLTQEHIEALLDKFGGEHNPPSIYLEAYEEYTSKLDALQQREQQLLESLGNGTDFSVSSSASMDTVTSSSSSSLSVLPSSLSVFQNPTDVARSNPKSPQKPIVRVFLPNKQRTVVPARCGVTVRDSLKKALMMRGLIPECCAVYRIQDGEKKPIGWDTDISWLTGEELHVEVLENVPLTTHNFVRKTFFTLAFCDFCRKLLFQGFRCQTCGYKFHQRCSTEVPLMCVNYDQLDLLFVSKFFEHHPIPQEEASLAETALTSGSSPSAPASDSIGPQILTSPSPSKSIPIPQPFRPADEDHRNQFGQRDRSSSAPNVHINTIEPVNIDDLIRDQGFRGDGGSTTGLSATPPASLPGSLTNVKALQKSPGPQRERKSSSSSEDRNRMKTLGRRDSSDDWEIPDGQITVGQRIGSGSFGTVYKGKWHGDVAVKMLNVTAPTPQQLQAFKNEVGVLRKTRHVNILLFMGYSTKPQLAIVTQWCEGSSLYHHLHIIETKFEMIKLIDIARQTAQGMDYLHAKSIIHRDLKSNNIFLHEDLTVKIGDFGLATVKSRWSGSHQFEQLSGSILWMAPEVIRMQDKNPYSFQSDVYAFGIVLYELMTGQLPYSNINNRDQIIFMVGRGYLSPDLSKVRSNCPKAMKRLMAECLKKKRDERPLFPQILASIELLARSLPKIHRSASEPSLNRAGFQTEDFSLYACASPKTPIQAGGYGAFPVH

[2] = biological target: Calcium/calmodulin-dependent protein kinase type 1D (Homo sapiens) (UniProt Q8IU85); experiment: Inhibition of recombinant full-length human CAMK1delta at 1 uM using […] after 40 mins in presence of [gamma-33P]ATP by scintillation counting method
[3] = biological target: Cyclin-dependent kinase-like 1 (Homo sapiens) (UniProt Q00532); experiment: Inhibition of recombinant human CDKL1 (1 to 303 residues) at 1 uM using RRRFRPASPLRGPPK as substrate after 120 mins in presence of [gamma-33P]ATP by scintillation counting method
[4] = tested on: Mast/stem cell growth factor receptor Kit (Homo sapiens), P10721 [D816H]; experiment: Inhibition of recombinant human cKit D816H mutant (544 to end residues) at 1 uM using GGMEDIYFEFMGGKKK as substrate after 40 mins in presence of [gamma-33P]ATP by scintillation counting method
[5] = biological target: Serine/threonine-protein kinase DCLK2 (Homo sapiens) (UniProt Q8N568); experiment: Inhibition of recombinant human DCAMKL2 (376 to end residues) at 1 uM using KKLNRTLSFAEPG as substrate after 40 mins in presence of [gamma-33P]ATP by scintillation counting method
[6] = tested on: Epidermal growth factor receptor (Homo sapiens), P00533 [L861Q]; experiment: Inhibition of recombinant human EGFR L861Q mutant (696 to end residues) at 1 uM using poly(Glu,Tyr) 4:1 as substrate after 40 mins in presence of [gamma-33P]ATP by scintillation counting method
[7] = biological target: Ephrin type-A receptor 5 (Homo sapiens) (UniProt P54756); experiment: Inhibition of recombinant human EPHA5 (655 to 956 residues) at 1 uM using poly(Glu,Tyr) 4:1 as substrate after 40 mins in presence of [gamma-33P]ATP by scintillation counting method
Chain of Ephrin type-A receptor 5 (Homo sapiens) (P54756 whole entry, the tested form may be a part): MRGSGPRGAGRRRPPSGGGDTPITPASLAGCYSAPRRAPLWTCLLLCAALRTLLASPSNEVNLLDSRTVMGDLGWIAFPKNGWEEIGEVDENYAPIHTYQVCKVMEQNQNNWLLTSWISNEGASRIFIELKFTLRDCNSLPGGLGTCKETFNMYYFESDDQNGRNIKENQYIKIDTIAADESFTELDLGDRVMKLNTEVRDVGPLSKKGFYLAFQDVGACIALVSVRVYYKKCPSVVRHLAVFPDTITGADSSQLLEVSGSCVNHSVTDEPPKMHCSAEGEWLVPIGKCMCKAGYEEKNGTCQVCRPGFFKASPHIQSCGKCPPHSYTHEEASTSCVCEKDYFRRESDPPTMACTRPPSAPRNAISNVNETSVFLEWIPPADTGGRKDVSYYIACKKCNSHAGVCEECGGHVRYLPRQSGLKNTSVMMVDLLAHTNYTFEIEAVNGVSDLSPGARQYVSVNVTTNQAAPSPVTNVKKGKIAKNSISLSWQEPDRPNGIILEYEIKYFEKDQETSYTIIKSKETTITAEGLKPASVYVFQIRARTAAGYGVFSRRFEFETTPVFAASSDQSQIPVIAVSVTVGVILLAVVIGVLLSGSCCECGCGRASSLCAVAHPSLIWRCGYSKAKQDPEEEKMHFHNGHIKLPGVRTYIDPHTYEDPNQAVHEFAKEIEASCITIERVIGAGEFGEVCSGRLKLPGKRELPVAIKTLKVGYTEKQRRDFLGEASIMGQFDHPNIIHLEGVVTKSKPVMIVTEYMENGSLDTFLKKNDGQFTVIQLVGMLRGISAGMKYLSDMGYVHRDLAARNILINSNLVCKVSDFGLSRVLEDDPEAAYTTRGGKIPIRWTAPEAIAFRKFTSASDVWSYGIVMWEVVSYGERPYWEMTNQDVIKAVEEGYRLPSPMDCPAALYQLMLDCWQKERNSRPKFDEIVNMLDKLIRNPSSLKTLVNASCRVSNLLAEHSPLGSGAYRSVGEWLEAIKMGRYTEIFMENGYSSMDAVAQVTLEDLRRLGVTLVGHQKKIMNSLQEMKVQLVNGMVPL

[8] = biological target: Receptor-type tyrosine-protein kinase FLT3 (Homo sapiens) (UniProt P36888); experiment: Inhibition of recombinant human Flt3 (564 to end residues) at 1 uM using EAIYAAPFAKKK as substrate after 40 mins in presence of [gamma-33P]ATP by scintillation counting method
[9] = biological target: eIF-2-alpha kinase GCN2 (Homo sapiens) (UniProt Q9P2K8); experiment: Inhibition of recombinant full-length human GCN2 at 1 uM using RSRSRSRSRSRSRSR as substrate after 40 mins in presence of [gamma-33P]ATP by scintillation counting method
[10] = biological target: Leucine-rich repeat serine/threonine-protein kinase 2 (Homo sapiens) (UniProt Q5S007); experiment: Inhibition of recombinant human LRRK2 (970 to end residues) at 1 uM using RLGRDKYKTLRQIRQ as substrate after 40 mins in presence of [gamma-33P]ATP by scintillation counting method
[11] = biological target: Misshapen-like kinase 1 (Homo sapiens) (UniProt Q8N4C8); experiment: Inhibition of recombinant human MINK (1 to 310 residues) at 1 uM using myelin basic protein as substrate after 40 mins in presence of [gamma-33P]ATP by scintillation counting method
Chain of Misshapen-like kinase 1 (Homo sapiens) (Q8N4C8 whole entry, looked up, the tested form may be a part): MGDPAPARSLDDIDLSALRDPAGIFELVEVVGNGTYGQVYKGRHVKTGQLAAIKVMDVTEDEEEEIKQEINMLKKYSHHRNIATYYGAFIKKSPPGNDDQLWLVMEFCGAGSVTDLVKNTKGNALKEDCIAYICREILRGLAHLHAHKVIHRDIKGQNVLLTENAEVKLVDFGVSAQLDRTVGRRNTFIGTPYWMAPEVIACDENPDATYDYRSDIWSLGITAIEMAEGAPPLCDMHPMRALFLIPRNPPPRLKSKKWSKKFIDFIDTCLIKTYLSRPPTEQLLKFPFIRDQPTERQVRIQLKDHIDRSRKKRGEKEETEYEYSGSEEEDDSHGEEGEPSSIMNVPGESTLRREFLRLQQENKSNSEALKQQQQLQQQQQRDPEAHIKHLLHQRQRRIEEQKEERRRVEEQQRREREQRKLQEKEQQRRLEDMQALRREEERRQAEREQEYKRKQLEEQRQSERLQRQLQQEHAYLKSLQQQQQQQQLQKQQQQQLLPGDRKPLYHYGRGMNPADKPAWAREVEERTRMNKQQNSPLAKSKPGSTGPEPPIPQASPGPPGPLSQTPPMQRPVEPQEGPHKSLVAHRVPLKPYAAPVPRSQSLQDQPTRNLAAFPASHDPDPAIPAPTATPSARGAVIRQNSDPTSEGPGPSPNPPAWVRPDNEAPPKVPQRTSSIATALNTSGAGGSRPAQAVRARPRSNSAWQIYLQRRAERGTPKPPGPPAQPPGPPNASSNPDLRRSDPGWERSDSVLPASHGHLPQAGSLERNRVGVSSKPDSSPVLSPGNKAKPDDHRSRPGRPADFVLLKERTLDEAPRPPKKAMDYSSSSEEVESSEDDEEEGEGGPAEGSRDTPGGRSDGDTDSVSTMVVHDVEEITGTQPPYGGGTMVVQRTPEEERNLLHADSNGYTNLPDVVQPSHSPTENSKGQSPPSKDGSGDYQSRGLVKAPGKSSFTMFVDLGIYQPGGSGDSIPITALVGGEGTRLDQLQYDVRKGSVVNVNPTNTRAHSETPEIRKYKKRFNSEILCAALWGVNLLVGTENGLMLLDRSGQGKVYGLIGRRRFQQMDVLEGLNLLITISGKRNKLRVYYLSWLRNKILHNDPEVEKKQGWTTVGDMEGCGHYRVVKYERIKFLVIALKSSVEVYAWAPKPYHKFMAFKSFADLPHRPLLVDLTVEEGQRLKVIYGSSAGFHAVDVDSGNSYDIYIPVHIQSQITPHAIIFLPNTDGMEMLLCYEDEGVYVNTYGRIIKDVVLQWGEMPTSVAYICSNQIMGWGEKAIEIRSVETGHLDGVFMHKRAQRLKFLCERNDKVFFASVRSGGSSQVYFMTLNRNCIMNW

[12] = biological target: Serine/threonine-protein kinase Nek6 (Homo sapiens) (UniProt Q9HC98); experiment: Inhibition of recombinant human NEK6 (2 to end residues) at 1 uM using FLAKSFGSPNRAYKK as substrate after 40 mins in presence of [gamma-33P]ATP by scintillation counting method
[13] = biological target: Serine/threonine-protein kinase MARK2 (Homo sapiens) (UniProt Q7KZI7); experiment: Inhibition of recombinant full-length human PAR-1Balpha at 1 uM using KKKVSRSGLYRSPSMPENLNRPR as substrate after 40 mins in presence of [gamma-33P]ATP by scintillation counting method
[14] = species on record: Mus musculus; experiment: Inhibition of recombinant full-length mouse p110a/recombinant p65a (1 to 571 residues) at 1 uM using phosphatidylinositol 4,5-bisphosphate as substrate after 40 mins in presence of [gamma-33P]ATP by scintillation counting method
[15] = biological target: PI3K p110 beta/p85 beta (Mus musculus) (UniProt Q8BTI9+O08908); experiment: Inhibition of recombinant full-length mouse p110b/p85b at 1 uM using phosphatidylinositol 4,5-bisphosphate as substrate after 40 mins in presence of [gamma-33P]ATP by scintillation counting method; type: protein-complex assay
[16] = biological target: Protein kinase C theta type (Homo sapiens) (UniProt Q04759); experiment: Inhibition of recombinant full-length human PKCtheta at 1 uM using histone H1 as substrate after 40 mins in presence of [gamma-33P]ATP by scintillation counting method
Chain of Protein kinase C theta type (Homo sapiens) (Q04759 whole entry, looked up): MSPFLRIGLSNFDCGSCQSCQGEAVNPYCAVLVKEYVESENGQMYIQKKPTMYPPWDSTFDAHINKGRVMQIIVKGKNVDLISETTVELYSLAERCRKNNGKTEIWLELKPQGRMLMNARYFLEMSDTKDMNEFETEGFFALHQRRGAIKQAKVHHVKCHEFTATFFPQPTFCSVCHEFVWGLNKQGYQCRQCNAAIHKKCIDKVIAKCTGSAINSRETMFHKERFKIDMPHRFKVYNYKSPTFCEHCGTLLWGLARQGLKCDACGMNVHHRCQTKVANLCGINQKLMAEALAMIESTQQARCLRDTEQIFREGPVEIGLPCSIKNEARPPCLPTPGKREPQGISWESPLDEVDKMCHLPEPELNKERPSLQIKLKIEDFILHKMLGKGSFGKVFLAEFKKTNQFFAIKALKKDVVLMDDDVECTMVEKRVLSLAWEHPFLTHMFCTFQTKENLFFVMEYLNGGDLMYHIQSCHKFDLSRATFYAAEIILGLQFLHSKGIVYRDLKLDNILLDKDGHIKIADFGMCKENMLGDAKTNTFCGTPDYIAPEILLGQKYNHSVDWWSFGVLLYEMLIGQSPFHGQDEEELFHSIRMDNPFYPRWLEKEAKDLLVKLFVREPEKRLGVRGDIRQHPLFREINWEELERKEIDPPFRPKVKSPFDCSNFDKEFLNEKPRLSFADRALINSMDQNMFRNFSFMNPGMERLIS

[17] = biological target: Serine/threonine-protein kinase D3 (Homo sapiens) (UniProt O94806); experiment: Inhibition of recombinant full-length human PKD3 at 1 uM using KKLRRTLSVA as substrate after 40 mins in presence of [gamma-33P]ATP by scintillation counting method
[18] = biological target: Serine/threonine-protein kinase TAO1 (Homo sapiens) (UniProt Q7L7X3); experiment: Inhibition of recombinant human TAO1 (1 to 327 residues) at 1 uM using myelin basic protein as substrate after 40 mins in presence of [gamma-33P]ATP by scintillation counting method
[19] = biological target: Serine/threonine-protein kinase TAO2 (Homo sapiens) (UniProt Q9UL54); experiment: Inhibition of recombinant human TAO2 (1 to 320 residues) at 1 uM using myelin basic protein as substrate after 40 mins in presence of [gamma-33P]ATP by scintillation counting method
[20] = biological target: Dual specificity protein kinase TTK (Homo sapiens) (UniProt P33981); experiment: Inhibition of recombinant full-length human TTK at 1 uM using myelin basic protein as substrate after 40 mins in presence of [gamma-33P]ATP by scintillation counting method
[21] = biological target: Tyrosine-protein kinase TXK (Homo sapiens) (UniProt P42681); experiment: Inhibition of recombinant human Txk (256 to end residues) at 1 uM using GEEPLYWSFPAKKK as substrate after 40 mins in presence of [gamma-33P]ATP by scintillation counting method
[22] = biological target: Serine/threonine-protein kinase VRK2 (Homo sapiens) (UniProt Q86Y07); experiment: Inhibition of recombinant human VRK2 (1 to 336 residues) at 1 uM using casein as substrate after 40 mins in presence of [gamma-33P]ATP by scintillation counting method
[23] = biological target: Tyrosine-protein kinase Yes (Homo sapiens) (UniProt P07947); experiment: Inhibition of recombinant full-length human Yes at 1 uM using poly(Glu,Tyr) 4:1 as substrate after 40 mins in presence of [gamma-33P]ATP by scintillation counting method
Chain of Tyrosine-protein kinase Yes (Homo sapiens) (P07947 2-543 limits assumed): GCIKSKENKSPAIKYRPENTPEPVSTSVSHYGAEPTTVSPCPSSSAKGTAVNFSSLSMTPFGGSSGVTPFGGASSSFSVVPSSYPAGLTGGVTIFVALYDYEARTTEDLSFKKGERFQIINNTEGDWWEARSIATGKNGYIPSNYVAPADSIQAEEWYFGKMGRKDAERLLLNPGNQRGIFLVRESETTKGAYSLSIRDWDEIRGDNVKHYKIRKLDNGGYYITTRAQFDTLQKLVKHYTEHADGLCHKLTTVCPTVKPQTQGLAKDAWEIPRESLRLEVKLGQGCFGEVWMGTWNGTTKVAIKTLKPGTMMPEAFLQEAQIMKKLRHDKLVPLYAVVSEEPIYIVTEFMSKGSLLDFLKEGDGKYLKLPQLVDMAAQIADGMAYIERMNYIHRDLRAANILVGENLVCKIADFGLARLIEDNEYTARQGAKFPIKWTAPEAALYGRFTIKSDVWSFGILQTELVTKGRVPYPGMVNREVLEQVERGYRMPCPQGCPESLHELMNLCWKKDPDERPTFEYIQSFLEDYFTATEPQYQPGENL

[24] = biological target: Death-associated protein kinase 3 (Homo sapiens) (UniProt O43293); experiment: Inhibition of recombinant human ZIPK (1 to 290 residues) at 1 uM using KKLNRTLSFAEPG as substrate after 40 mins in presence of [gamma-33P]ATP by scintillation counting method
Chain of Death-associated protein kinase 3 (Homo sapiens) (O43293 whole entry, looked up, the tested form may be a part): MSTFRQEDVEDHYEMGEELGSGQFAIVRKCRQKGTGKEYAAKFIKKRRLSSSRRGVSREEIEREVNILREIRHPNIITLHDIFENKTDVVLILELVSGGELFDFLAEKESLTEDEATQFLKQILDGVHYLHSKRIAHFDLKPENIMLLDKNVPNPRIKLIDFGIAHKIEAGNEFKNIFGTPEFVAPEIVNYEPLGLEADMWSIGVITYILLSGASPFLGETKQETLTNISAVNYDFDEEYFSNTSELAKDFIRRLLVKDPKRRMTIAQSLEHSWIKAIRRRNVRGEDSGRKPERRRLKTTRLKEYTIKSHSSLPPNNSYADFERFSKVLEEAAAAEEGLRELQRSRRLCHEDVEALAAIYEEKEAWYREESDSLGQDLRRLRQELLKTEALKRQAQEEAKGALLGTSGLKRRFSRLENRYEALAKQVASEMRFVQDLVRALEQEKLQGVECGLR

## CS(=O)(=O)c1ccc(-n2nc(-c3cnc4[nH]ccc4c3)c3c(N)ncnc32)cc1
[1]
  inhibition: 89%
[2]
  inhibition: -8%
[3]
  inhibition: 3%
[4]
  inhibition: 85%
[5]
  inhibition: -1%
[6]
  inhibition: 31%
[7]
  inhibition: 8%
[8]
  inhibition: 16%
[9]
  inhibition: 2%
[10]
  inhibition: 22%
[11]
  inhibition: -10%
[12]
  inhibition: -4%
[13]
  inhibition: 6%
[14]
  inhibition: 7%
[15]
  inhibition: 1%
[16]
  inhibition: 5%
[17]
  inhibition: 10%
[18]
  inhibition: 7%
[19]
  inhibition: 9%
[20]
  inhibition: -6%
[21]
  inhibition: 78%
[22]
  inhibition: 0%
[23]
  inhibition: 92%
[24]
  inhibition: 0%
